{"source": "patent US8227508B2", "about": "“Dietary and pharmaceutical compositions containing carnosol and/or rosmanol and their uses” (DSM IP Assets B.V., priority 2006, dated 2012)", "key": {"[1]": {"target": "T1, human calcitonin gene-related peptide (hCGRP) receptor (Homo sapiens, UniProt O60894+Q16602)", "T1 construct": "expressed in transfected cells; host or cells: CHO (membrane homogenates)", "T1 sequence (Q16602 23-461)": "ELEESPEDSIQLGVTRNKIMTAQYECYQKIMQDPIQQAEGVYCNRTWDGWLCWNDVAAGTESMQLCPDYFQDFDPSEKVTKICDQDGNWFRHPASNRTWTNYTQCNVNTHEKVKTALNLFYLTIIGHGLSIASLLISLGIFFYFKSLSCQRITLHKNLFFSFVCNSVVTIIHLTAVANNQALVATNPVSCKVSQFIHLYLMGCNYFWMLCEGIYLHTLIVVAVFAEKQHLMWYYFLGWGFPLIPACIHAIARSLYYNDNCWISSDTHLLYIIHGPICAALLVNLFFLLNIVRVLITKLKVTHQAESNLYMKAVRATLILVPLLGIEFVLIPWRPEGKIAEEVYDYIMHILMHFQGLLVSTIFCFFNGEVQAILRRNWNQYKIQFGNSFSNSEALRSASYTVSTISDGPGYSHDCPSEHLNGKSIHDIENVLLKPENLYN", "T1 sequence (O60894 27-148)": "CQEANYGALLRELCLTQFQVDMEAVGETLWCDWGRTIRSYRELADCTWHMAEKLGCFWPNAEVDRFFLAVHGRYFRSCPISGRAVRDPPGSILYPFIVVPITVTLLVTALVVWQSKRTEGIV", "test": "CGRP receptor radioligand binding assay", "details": "0.03 nM [125I]h-CGRPα, CHO cell membranes, read-out: percentage inhibition of control radioligand specific binding to hCGRP receptor", "experimental": "The effect of carnosol on the agonist site of the human calcitonin gene-related peptide (hCGRP) receptor in transfected CHO cells was investigated using a radioligand binding assay adapted from that described by Aiyar et al. (1996, J. Biol. Chem., 271: 11325-11329).\nBriefly, cell membrane homogenates (10 μg protein) were incubated for 90 min at 22° C. with 0.03 nM [^125I]h-CGRPα in the absence or presence of carnosol (10 μM) in a buffer containing 50 mM HEPES-NaOH (pH 7.4), 10 mM MgCl2, 4 mM KCl, 10 mM NaCl, 1 mM EDTA, 1 μM phosphoramidon, 0.3% BSA and 0.04% bacitracine. Non-specific binding was determined in the presence of 1 μM h-CGRPα. Following incubation, the samples were filtered rapidly under vacuum through glass fibre filters (GF/B, Packard) pre-soaked with 0.3% polyethyleneimine (PEI) and rinsed several times with ice-cold 50 mM Tris-HCl using a 96-sample cell harvester (Unifilter, Packard). The filters were dried then counted for radioactivity in a scintillation counter (Topcount, Packard) using a scintillation cocktail (Microscint 0, Packard). The results are expressed as percentage inhibition of the control radioligand specific binding. The standard reference compound used was h-CGRPα, the natural agonist of the hCGRP receptor."}, "[2]": {"target": "human recombinant acetylcholinesterase (Homo sapiens, UniProt P22303)", "sequence (P22303 32-614)": "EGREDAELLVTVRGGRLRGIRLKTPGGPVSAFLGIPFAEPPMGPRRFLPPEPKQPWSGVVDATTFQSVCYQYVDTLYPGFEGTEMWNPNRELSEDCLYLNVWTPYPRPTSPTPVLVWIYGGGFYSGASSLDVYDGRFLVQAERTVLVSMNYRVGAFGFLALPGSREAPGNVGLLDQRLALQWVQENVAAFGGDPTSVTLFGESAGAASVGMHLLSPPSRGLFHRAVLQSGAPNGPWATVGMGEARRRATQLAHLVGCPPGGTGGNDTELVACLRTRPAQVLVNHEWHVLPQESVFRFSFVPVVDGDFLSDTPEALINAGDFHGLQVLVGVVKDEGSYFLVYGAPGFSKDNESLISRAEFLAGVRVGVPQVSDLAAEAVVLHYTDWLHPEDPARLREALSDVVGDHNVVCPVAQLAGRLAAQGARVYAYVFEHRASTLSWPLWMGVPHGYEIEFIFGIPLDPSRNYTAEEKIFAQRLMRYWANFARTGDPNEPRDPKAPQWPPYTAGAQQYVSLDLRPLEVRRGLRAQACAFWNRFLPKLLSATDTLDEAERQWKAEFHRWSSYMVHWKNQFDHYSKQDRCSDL", "test": "Acetylcholinesterase inhibition (Ellman method)", "assay_type": "biochemical", "details": "substrate AMTCh 50 μM, read-out: percentage inhibition of acetylcholinesterase activity", "experimental": "The effect of carnosol on human recombinant acetylcholinesterase activity was quantified by measuring the formation of 5-thio-2-nitrobenzoic acid from acetyl-6-methylthiocholine (AMTCh), as adapted from Ellman et al. (1961, Biochem. Pharmacol., 7: 88-90). Briefly, carnosol (10 μM), reference compound or water (control) were added to a buffer containing 200 mM NaH2PO4/Na2HPO4 (pH 8.0), 5 mg/ml (NH4)2SO4, 0.4 mM DTNB and 5 mU enzyme. The enzymatic reaction was then initiated by the addition of the substrate AMTCh at 50 μM. The absorbance was measured immediately (t=0) at λ=405 nm using a microplate reader (MRX, Dynatech or Ultra, Tecan). This measurement was used to detect any compound interference with the spectrophotometric detection at this wavelength. After 30 min incubation at 37° C. (t=30), a second measurement of the absorbance was made at λ=405 nm. The enzyme activity was determined by subtracting the signal measured at t=0 from that measured at t=30. The results are expressed as percentage inhibition of the control enzyme activity. The standard inhibitory reference compound used was neostigmine, tested in each experiment at several concentrations to obtain an inhibition curve from which its IC50 value was calculated."}, "mouse [3]": {"test_system": "mouse", "test": "Porsolt's Forced Swim Test (FST)", "assay_type": "in vivo", "experimental": "The Forced Swim Test (FST) was first reported in 1977 for screening of antidepressant-like compounds in rats (Porsolt et al 1977 Nature, 266:730-732) and, later, modified for testing mice (Porsolt et al 1977 Arch. Int. Pharmacodynamie, 229:327-336).\nIn two separate experiments, mice were tested following either i.p. or p.o. administration of carnosol. Mice were individually placed in a cylinder containing water (22° C.) from which they could not escape. The mice were placed in the water for 6 min and the duration of immobility during the last 4 min was measured. Ten to fifteen mice were studied per group. Carnosol was evaluated at 3, 10, 30 mg/kg body weight (i.p. 30 min before the test) or 200, 400, 600 mg/kg body weight (p.o., 24, 5 and 1 h before the test), and compared with vehicle control groups. Imipramine (32 mg/kg i.p., or p.o., respectively), administered under the same experimental conditions, was used as reference substance. Immobility and swimming time were assessed."}, "mouse [4]": {"test_system": "mouse", "test": "Four Plates Test", "assay_type": "in vivo", "details": "−5 h and −1 h", "description": "The method, which detects anxiolytic activity, follows that described by Aron et al (1971, Neuropharmacology, 10:459-469). Anxiolytics (benzodiazepines) increase the number of punished crossings. Animals were placed individually in a white plastic enclosure containing a floor consisting of 4 metal plates connected to an electric shock generator (Apelex: type 011346). Each mouse was left to explore freely for 15 seconds. Then, every time it crossed from one plate to another, it received a weak electric shock (2.5 mA, 1.5 s). The number of punished crossings was counted during a 1 minute test. 15 mice were studied per group. The test was performed blind.\nCarnosol was evaluated at 3 doses (200, 400, 600 mg/kg), administered p.o. 24 h, 5 h and 1 h before the test, and compared with a vehicle control (corn oil) group.\nClobazam (32 mg/kg p.o.), administered 1 h before the test, was used as reference substance. Mice in this group received additional administrations of vehicle at 24 h and 5 h before the test in order to maintain experimental blinding."}}, "data": [{"smiles": "CC(C)c1cc2c(c(O)c1O)[C@@]13CCCC(C)(C)[C@@H]1C[C@@H]2OC3=O", "note": "[Carnosol, carnosol]", "values": [{"measurement": "inhibition at 10 µM", "setting": "[1]", "result": 54, "unit": "%"}, {"measurement": "inhibition at 10 µM", "setting": "[2]", "result": 53, "unit": "%"}, {"measurement": "Duration of immobility (% change from control)", "setting": "mouse [3]; 3 mg/kg i.p., −30 min", "result": "−26", "unit": "%"}, {"measurement": "Duration of immobility (% change from control)", "setting": "mouse [3]; 10 mg/kg i.p., −30 min", "result": "−21", "unit": "%"}, {"measurement": "Duration of immobility (% change from control)", "setting": "mouse [3]; 30 mg/kg i.p., −30 min", "result": "−18", "unit": "%"}, {"measurement": "Duration of immobility (% change from control)", "setting": "mouse [3]; 200 mg/kg p.o., −24, −5, −1 h", "result": "−9", "unit": "%"}, {"measurement": "Duration of immobility (% change from control)", "setting": "mouse [3]; 400 mg/kg p.o., −24, −5, −1 h", "result": "−53", "unit": "%"}, {"measurement": "Duration of immobility (% change from control)", "setting": "mouse [3]; 600 mg/kg p.o., −24, −5, −1 h", "result": "−3", "unit": "%"}, {"measurement": "Number of punished crossings, mean", "setting": "mouse [4]; 200 mg/kg p.o. −24 h", "result": 3.5}, {"measurement": "Number of punished crossings, mean", "setting": "mouse [4]; 400 mg/kg p.o. −24 h", "result": 3.7}, {"measurement": "Number of punished crossings, mean", "setting": "mouse [4]; 600 mg/kg p.o. −24 h", "result": 3.1}]}]}
